{"source": "patent US20170326188A1", "about": "“USES OF PORIA COCOS EPIDERMIS EXTRACT, PORICOIC ACID A, AND PORICOIC ACID B IN REGULATING BLOOD GLUCOSE LEVEL” (SINPHAR PHARMACEUTICAL CO., LTD., priority 2016, published 2017)", "key": {"[1]": {"system": "mouse adipocytes (3T3-L1)", "test": "Glucose oxidase assay of glucose uptake capability of adipocytes", "type": "cell-based", "conditions": "2 hours; for relative glucose uptake capability of cells (glucose consumption) compared to the control group: 3T3-L1 cells, 0.1, 1 or 10 μg/ml, BSA-DMEM medium containing 500 μg/ml glucose", "method": "The differentiated mouse myocytes (C2C12, purchased from ATCC) and adipocytes (3T3-L1, purchased from ATCC) were cultivated in a Dulbecco's modified Eagle's medium (DMEM) containing 2% bovine serum albumin (BSA) but serum free for 16 hours respectively. Then, the cells were washed with Dulbecco's phosphate-buffered saline (D-PBS), and medium was replaced with a 0.2% BSA-DMEM medium containing 500 μg/ml glucose. The cells thus provided were used in the following experiments. 3T3-L1 cells provided by [Preparation Examples] were divided into 5 groups and were respectively cultivated with the mediums of Groups I to V described in Example 1 (1-1) for 2 hours. Then, the content of glucose in the medium of each group were determined by a glucose oxidase assay to measure the level of glucose consumption of each group (representing the glucose uptake capability of cells). Finally, the results of the control group (i.e., cells being cultivated with the medium of Group I) was served as a basis to calculate the relative glucose uptake capabilities of other groups. 3T3-L1 cells provided by [Preparation Examples] were divided into 8 groups and were respectively cultivated with the mediums of Groups i to v as described in Example 2 (2-1) for 2 hours. Then, the content of glucose in the medium of each group was determined by a glucose oxidase assay to measure the level of glucose consumption of each group (representing the glucose uptake capability of cells). Finally, the results of the control group (i.e., cells being cultivated with the medium of Group i) was served as a basis to calculate the relative glucose uptake capabilities of other groups. FIG. 4A comprises the results of the control group, the positive control group (i.e., cells being cultivated with the medium of Group ii), and the groups being treated with poricoic acid A (i.e., cells being cultivated with the medium of Group iii, iv or v which contains poricoic acid A). FIG. 4B comprises the results of the control group, the positive control group, and the group being treated with poricoic acid B (i.e., cells being cultivated with the medium of Group iii, iv or v which contains poricoic acid B)."}, "[2]": {"system": "mouse myocytes (C2C12)", "test": "Glucose oxidase assay of glucose uptake capability of myocytes", "type": "cell-based", "conditions": "C2C12 cells, 0.1, 1 or 10 μg/ml, 2 hours; for relative glucose uptake capability of cells (glucose consumption) compared to the control group: BSA-DMEM medium containing 500 μg/ml glucose", "method": "The differentiated mouse myocytes (C2C12, purchased from ATCC) and adipocytes (3T3-L1, purchased from ATCC) were cultivated in a Dulbecco's modified Eagle's medium (DMEM) containing 2% bovine serum albumin (BSA) but serum free for 16 hours respectively. Then, the cells were washed with Dulbecco's phosphate-buffered saline (D-PBS), and medium was replaced with a 0.2% BSA-DMEM medium containing 500 μg/ml glucose. The cells thus provided were used in the following experiments. C2C12 cells provided by [Preparation Examples] were divided into 5 groups and were respectively cultivated with the following mediums for 2 hours: • 1. Group I: a BSA-DMEM medium containing 500 μg/ml glucose. • 2. Group II: a BSA-DMEM medium containing 500 μg/ml glucose and 100 nM insulin. • 3. Group III: a BSA-DMEM medium containing 500 μg/ml glucose and 0.1 μg/ml Poria cocos epidermis extract provided by [Preparation Example A-2]. • 4. Group IV: a BSA-DMEM medium containing 500 μg/ml glucose and 1 μg/ml Poria cocos epidermis extract provided by [Preparation Example A-2]. • 5. Group V: a BSA-DMEM medium containing 500 μg/ml glucose and 10 μg/ml Poria cocos epidermis extract provided by [Preparation Example A-2]. Thereafter, the content of glucose in the medium of each group was determined by a glucose oxidase assay to measure the level of glucose consumption (representing the glucose uptake capability of cells) of each group. Finally, the results of the control group (i.e., cells being cultivated with the medium of Group I) was served as a basis to calculate the relative glucose uptake capabilities of other groups. C2C12 cells provided by [Preparation Examples] were divided into 8 groups and were respectively cultivated with the following mediums for 2 hours: • 1. Group i: a BSA-DMEM medium containing 500 μg/ml glucose. • 2. […] Then, the content of glucose in the medium of each group was determined by a glucose oxidase assay to measure the level of glucose consumption of each group (representing the glucose uptake capability of cells). […]"}}, "data": [{"smiles": "C=C(CC[C@@H](C(=O)O)[C@H]1[C@H](O)C[C@@]2(C)C3=CC[C@@H](C(=C)C)[C@](C)(CCC(=O)O)C3=CC[C@]12C)C(C)C", "note": "[poricoic acid A, Poricoic acid A]", "values": [{"measurement": "increment in glucose uptake capability compared to the control group, medium dosage group", "setting": "[1]; 3T3-L1 cells, 1 μg/ml", "result": "significant"}, {"measurement": "increment in glucose uptake capability compared to the control group, high dosage group", "setting": "[1]; 3T3-L1 cells, 10 μg/ml", "result": "significant"}, {"measurement": "relative glucose uptake capability of cells (glucose consumption) compared to the control group", "setting": "[1]", "result": "exhibited an increment in the glucose uptake capabilities"}, {"measurement": "relative glucose uptake capability of cells (glucose consumption) compared to the control group", "setting": "[2]", "result": "significantly increased"}, {"measurement": "glucose uptake capability compared to the positive control group", "setting": "[2]; positive control 100 nM insulin", "result": "equivalent to that of the positive control group"}]}, {"smiles": "C=C(C)[C@@H]1CC=C2C(=CC[C@]3(C)[C@@H]([C@@H](CCC=C(C)C)C(=O)O)[C@H](O)C[C@@]23C)[C@@]1(C)CCC(=O)O", "note": "[poricoic acid B, Poricoic acid B]", "values": [{"measurement": "relative glucose uptake capability of cells (glucose consumption) compared to the control group", "setting": "[1]", "result": "significantly increased"}, {"measurement": "relative glucose uptake capability of cells (glucose consumption) compared to the control group", "setting": "[2]", "result": "significantly increased"}]}]}
